Laboratory results: patent US5075299A, “Cephalosporin compounds and antibacterial agents” (Meiji Seika Kaisha, Ltd., priority 1988, dated 1991)
Converted amounts (≈) assume the structure as drawn. Where two headings read alike, the source gives them in different places.

Tests used:
[1] = tested on: Pseudomonas aeruginosa IAM-1007; assay: antibacterial activity, agar dilution method; format: cell-based
[2] = tested on: Escherichia coli W3630 RGN238; assay: antibacterial activity, agar dilution method; format: cell-based; conditions: W3630RGN238, read-out: Antibacterial Activity MIC
[3] = tested on: Klebsiella pneumoniae GN118; assay: antibacterial activity, agar dilution method; format: cell-based
[4] = tested on: Staphylococcus aureus 606 E-25; assay: antibacterial activity, agar dilution method; format: cell-based
Proteus rettgeli GN624 = assay: antibacterial activity, agar dilution method; format: cell-based; conditions: read-out: Antibacterial Activity MIC
[5] = tested on: Serratia marcescens GN629; assay: antibacterial activity, agar dilution method; format: cell-based
[6] = tested on: Citrobacter froindii GN346; assay: antibacterial activity, agar dilution method; format: cell-based
[7] = tested on: Pseudomonas aeruginosa MB3833; assay: antibacterial activity, agar dilution method; format: cell-based
Escherichia coli GN206 = assay: antibacterial activity, agar dilution method; format: cell-based
mice = assay: acute toxicity using mice; format: in vivo; conditions: dose of 2 g/kg by intravenous injection
Source text: Acute toxicity of the compound of Example 2 was examined using mice.

[8] = Klebsiella pneumoniae, GN118, read-out: Antibacterial Activity MIC
[9] = IAM1007, Pseudomonas aeruginosa IAM-1007, agar dilution method, read-out: Antibacterial Activity MIC
[10] = Klebsiella pneumoniae GN118, agar dilution method, read-out: Antibacterial Activity MIC
[11] = 606E25, Staphylococcus aureus 606 E-25, agar dilution method, read-out: Antibacterial Activity MIC
[12] = Proteus rettgeli GN624, agar dilution method
[13] = Serratia marcescens GN629, agar dilution method, read-out: Antibacterial Activity MIC
[14] = Citrobacter froindii GN346, agar dilution method, read-out: Antibacterial Activity MIC
[15] = Pseudomonas aeruginosa MB3833, agar dilution method, read-out: Antibacterial Activity MIC
[16] = Escherichia coli GN206, agar dilution method, read-out: Antibacterial Activity MIC

CC(C)(O/N=C(\C(=O)N[C@@H]1C(=O)N2C(C(=O)[O-])=C(C[n+]3ccccc3)CS[C@H]12)c1csc(N)n1)C(=O)O [CAZ, reference compound]
MIC ([1]; Pseudomonas aeruginosa, IAM1007, read-out: Antibacterial Activity MIC): 1.56 µg/mL (≈ 2.85 µM) | MIC [2]: 0.39 µg/mL (≈ 0.714 µM) | MIC [3, 8]: 0.78 µg/mL (≈ 1.43 µM) | MIC ([4]; Staphylococcus aureus, 606E25, read-out: Antibacterial Activity MIC): 12.5 µg/mL (≈ 22.9 µM) | MIC (Proteus rettgeli GN624): 1.56 µg/mL (≈ 2.85 µM) | MIC ([5]; Serratia marcescens, GN629, read-out: Antibacterial Activity MIC): 0.39 µg/mL (≈ 0.714 µM) | MIC ([6]; Citrobacter, GN346, read-out: Antibacterial Activity MIC): 50 µg/mL (≈ 91.5 µM) | MIC ([7]; Pseudomonas aeruginosa, MB3833, read-out: Antibacterial Activity MIC): 0.78 µg/mL (≈ 1.43 µM) | MIC (Escherichia coli GN206; Escherichia coli, GN206, read-out: Antibacterial Activity MIC): 1.56 µg/mL (≈ 2.85 µM)

CO/N=C(\C(=O)N[C@@H]1C(=O)N2C(C(=O)O)=C(COC(C)=O)CS[C@H]12)c1csc(N)n1 [CTX, reference compound]
MIC [1, 9]: 12.5 µg/mL (≈ 27.4 µM) | MIC [2]: 0.2 µg/mL (≈ 0.439 µM) | MIC [3, 10]: 0.05 µg/mL (≈ 0.11 µM) | MIC [4, 11]: 1.56 µg/mL (≈ 3.43 µM) | MIC (Proteus rettgeli GN624; [12]): 1.56 µg/mL (≈ 3.43 µM) | MIC [5, 13]: 0.39 µg/mL (≈ 0.856 µM) | MIC [6, 14]: 12.5 µg/mL (≈ 27.4 µM) | MIC [7, 15]: 12.5 µg/mL (≈ 27.4 µM) | MIC (Escherichia coli GN206; [16]): 1.56 µg/mL (≈ 3.43 µM)

Cc1c(O)c(=O)cc(CO/N=C(\C(=O)NC2C(=O)N3C(C(=O)O)=C(CSc4cnns4)CSC23)c2csc(N)n2)n1O (stereo not shown) [Example 2, 7-((Z)-2-(2-Aminothiazol-4-yl)-2-(6-methyl-1,5-dihydroxy-4-pyridon-2-ylmethoxyimino)acetamido)-3-(1,2,3-thiadiazol-5-yl-thiomethyl)-3-cephem-4-carboxylic acid]
MIC [1, 9]: < 0.025 µg/mL | Acute toxicity (death) (mice): no death was noted | MIC [2]: < 0.025 µg/mL | MIC [3, 10]: < 0.025 µg/mL | MIC [4, 11]: 12.5 µg/mL (≈ 19.2 µM) | MIC (Proteus rettgeli GN624; [12]): 0.1 µg/mL (≈ 0.153 µM) | MIC [5, 13]: 0.05 µg/mL (≈ 0.0766 µM) | MIC [6, 14]: 6.25 µg/mL (≈ 9.58 µM) | MIC [7, 15]: < 0.025 µg/mL | MIC (Escherichia coli GN206; [16]): 0.39 µg/mL (≈ 0.598 µM)

Cc1c(O)c(=O)cc(CO/N=C(\C(=O)NC2C(=O)N3C(C(=O)O)=C(CSc4nnnn4C)CSC23)c2csc(N)n2)n1O (stereo not shown) [Example 4, 7-((Z)-2-(2-Aminothiazol-4-yl)-2-(6-methyl-1,5-dihydroxy-4-pyridon-2-ylmethoxyimino)acetamido)-3-(1-methyl-1H-tetrazol-5-ylthiomethyl)-3-cephem-4-carboxylic acid]
MIC [1, 9]: < 0.025 µg/mL | MIC [2]: < 0.025 µg/mL | MIC [3, 10]: < 0.025 µg/mL | MIC [4, 11]: 25 µg/mL (≈ 38.4 µM) | MIC (Proteus rettgeli GN624; [12]): 0.05 µg/mL (≈ 0.0768 µM) | MIC [5, 13]: 0.05 µg/mL (≈ 0.0768 µM) | MIC [6, 14]: 6.25 µg/mL (≈ 9.61 µM) | MIC [7, 15]: < 0.025 µg/mL | MIC (Escherichia coli GN206; [16]): 0.1 µg/mL (≈ 0.154 µM)

Cc1cc(=O)c(O)c(CO/N=C(\C(=O)NC2C(=O)N3C(C(=O)O)=C(CSc4cnns4)CSC23)c2csc(N)n2)n1O (stereo not shown) [Example 6]
MIC [1, 9]: 0.39 µg/mL (≈ 0.598 µM) | MIC [2]: 0.05 µg/mL (≈ 0.0766 µM) | MIC [3, 8]: < 0.025 µg/mL | MIC [4, 11]: 1.56 µg/mL (≈ 2.39 µM) | MIC (Proteus rettgeli GN624; [12]): 0.1 µg/mL (≈ 0.153 µM) | MIC [5, 13]: 0.2 µg/mL (≈ 0.306 µM) | MIC [6, 14]: 6.25 µg/mL (≈ 9.58 µM) | MIC [7, 15]: 0.39 µg/mL (≈ 0.598 µM) | MIC (Escherichia coli GN206; [16]): 0.78 µg/mL (≈ 1.2 µM)
